Laboratory results reported in patent US20060009401A1, “Method for treatment and prevention of herpes zoster by topical application” (aRigen, Inc., priority 2004, published 2006).
Blank lines part the entries; values can stand above or below the molecule they belong to.

Legend:
[1] = molecular target: T1, dihydropyrimidine dehydrogenase (DPD) (Homo sapiens, UniProt Q12882); conditions: re-absorbed BVU, metabolite of oral sorivudine; cited from earlier work
T1 sequence (Q12882 4-1025): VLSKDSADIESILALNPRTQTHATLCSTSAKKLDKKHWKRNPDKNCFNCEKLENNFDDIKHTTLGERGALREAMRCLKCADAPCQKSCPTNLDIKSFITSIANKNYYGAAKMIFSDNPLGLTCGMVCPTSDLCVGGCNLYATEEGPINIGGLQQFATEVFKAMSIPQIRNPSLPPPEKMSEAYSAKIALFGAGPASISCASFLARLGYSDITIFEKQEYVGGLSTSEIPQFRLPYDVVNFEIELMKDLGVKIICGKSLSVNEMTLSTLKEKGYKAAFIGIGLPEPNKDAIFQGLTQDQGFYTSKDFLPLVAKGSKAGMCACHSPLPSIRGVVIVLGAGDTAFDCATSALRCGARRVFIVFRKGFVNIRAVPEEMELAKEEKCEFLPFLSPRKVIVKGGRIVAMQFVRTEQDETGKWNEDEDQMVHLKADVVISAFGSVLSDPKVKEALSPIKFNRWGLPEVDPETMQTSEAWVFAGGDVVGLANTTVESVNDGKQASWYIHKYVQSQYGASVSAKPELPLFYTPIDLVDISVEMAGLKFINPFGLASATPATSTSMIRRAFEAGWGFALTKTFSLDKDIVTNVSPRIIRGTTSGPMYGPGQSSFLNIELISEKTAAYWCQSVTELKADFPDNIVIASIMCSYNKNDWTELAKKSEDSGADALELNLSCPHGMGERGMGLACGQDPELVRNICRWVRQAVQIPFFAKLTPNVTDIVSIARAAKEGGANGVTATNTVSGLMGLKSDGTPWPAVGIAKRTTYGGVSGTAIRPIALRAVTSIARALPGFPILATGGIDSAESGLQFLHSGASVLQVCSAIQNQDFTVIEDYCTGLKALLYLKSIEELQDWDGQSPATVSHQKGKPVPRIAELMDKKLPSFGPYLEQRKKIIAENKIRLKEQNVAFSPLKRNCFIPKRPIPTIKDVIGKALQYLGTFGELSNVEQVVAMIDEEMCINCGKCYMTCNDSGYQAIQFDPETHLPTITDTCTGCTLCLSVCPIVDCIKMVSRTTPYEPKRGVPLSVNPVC

[2] = Study of interaction with 5-FU in rats; format: in vivo, Female Wister rats; conditions: for interaction with 5-FU: Groups 5 and 6, preparations for topical use combined with 5-FU; for Body weight (pre.) / Feed intake (pre.): before test
Text: Interactions with 5-FU, a fluorouracil-based anticancer drug, were studies using sorivudine (BVAU) 3% cream and CVAU 3% cream. Female Wister rats were raised for one week, and hair from the blade bone to the waist was shaved under anesthesia. The preparations for topical use were applied two times a day for one week. The expression “p.o.” appearing in the table means oral administration.
Erythrocyte count and leukocyte count are values measured seven days after the start of administration.

HSV-1 [3] = conditions: against HSV-1; cited from earlier work
VZV = conditions: against VZV; cited from earlier work
EBV = conditions: against EBV; cited from earlier work
[4] = oral agent, administered at the same time; cited from earlier work
[5] = cited from earlier work
HSV-1 [6] = conditions: application to the skin, mice; cited from earlier work
[7] = BVAU 30 mg/kg p.o. + 5-FU 60 mg/kg p.o.
[8] = BVAU 30 mg/kg p.o. + 5-FU 60 mg/kg p.o., seven days after start
[9] = single agent p.o. (BVAU 30 mg/kg; 5-FU 60 mg/kg)
[10] = single agent p.o. (BVAU 30 mg/kg; 5-FU 60 mg/kg), seven days after start of administration

Structure (SMILES): O=c1[nH]cc(/C=C/Br)c(=O)[nH]1 [BVU, bromovinyluracil]
inhibition of DPD [1]: inhibits

interaction with 5-FU [2]: no interaction observed
Structure (SMILES): O=c1[nH]c(=O)n([C@@H]2O[C@H](CO)[C@@H](O)[C@@H]2O)cc1/C=C/Cl [CVAU, 1-β-D-arabinofuranosyl-5-[(E)-2-chrolovinyl]uracil]

Structure (SMILES): O=c1[nH]c(=O)n([C@@H]2O[C@H](CO)[C@@H](O)[C@@H]2O)cc1/C=C/Br [sorivudine, 1-β-D-arabinofuranosyl-5-[(E)-2-bromovinyl]uracil]
antiviral activity (HSV-1 [3]): extremely potent antiviral activity
antiviral activity (VZV): extremely potent antiviral activity
antiviral activity (EBV): extremely potent antiviral activity
adverse effect due to drug interaction with fluorouracil-based anticancer drugs [4]: died because of the adverse effect due to drug interaction
Body weight (pre.) [2, 7]: 125
Feed intake (pre.) [2, 7]: 16
Body weight (7 d) [2, 8]: 88
Erythrocyte count [2, 8]: 892 10^4/mm^3
Feed intake (7 d) [2, 8]: 3
leukocyte count [2, 8]: 5.8 10^2/mm^3
side effect due to interaction with 5-FU ([2]; Group 4, orally administered with 5-FU (positive control)): significant weight loss and myelo-suppression
interaction with 5-FU [2]: no interaction observed
Body weight (pre.) [2, 9]: 124
Feed intake (pre.) [2, 9]: 15
Body weight (7 d) [2, 10]: 143
Erythrocyte count [2, 10]: 653 10^4/mm^3
Feed intake (7 d) [2, 10]: 16
leukocyte count [2, 10]: 45.6 10^2/mm^3
solubility [5]: slightly soluble
skin symptoms caused by inoculation with HSV-1 (HSV-1 [6]): suppresses the skin symptoms
